# Laboratory results published in patent publication US12594276B2, “Inhibitors of human immunodeficiency virus replication” (ViiV Healthcare UK (No.5) Limited, priority 2024, dated 2026).
# System: recombinant NL4-3 virus (nef section replaced with Renilla luciferase gene) in MT-2 cells
# Assay: HIV cell culture assay (antiviral activity, luciferase readout)
# Format: cell-based
# Conditions: Renilla, NL43, MT-2 cells infected for 4-5 days with recombinant NL4-3 Renilla luciferase virus
# Description: HIV cell culture assay—MT-2 cells, 293T cells and the proviral DNA clone of NL4-3 virus were obtained from the NIH AIDS Research and Reference Reagent Program. MT-2 cells were propagated in RPMI 1640 media supplemented with 10% heat inactivated fetal bovine serum (FBS), […]. The 293T cells were propagated in DMEM media supplemented with 10% heat inactivated FBS, […]. A recombinant NL4-3 proviral clone, in which a section of the nef gene was replaced with the Renilla luciferase gene, was used to make the reference virus used in these studies. The recombinant virus was prepared through transfection of the recombinant NL4-3 proviral clone into 293T cells using Transit-293 Transfection Reagent from Mirus Bio LLC (Madison, WI). Supernatant was harvested after 2-3 days and the amount of virus present was titered in MT-2 cells using luciferase enzyme activity as a marker by measuring luciferase enzyme activity. Luciferase was quantitated using the EnduRen Live Cell Substrate from Promega (Madison, WI). Antiviral activities of compounds toward the recombinant virus were quantified by measuring luciferase activity in MT-2 cells infected for 4-5 days with the recombinant virus in the presence of serial dilutions of the compound.
# The 50% effective concentration (EC50) was calculated by using the exponential form of the median effect equation where (Fa)=1/[1+(ED50/drug conc.)m](Johnson V A, Byington R T. Infectivity Assay. In Techniques in HIV Research. ed. Aldovini A, Walker B D. 71-76. New York: Stockton Press. 1990). Curve fitting and analysis were performed with ActivityBase XE Runner software version 9.1.0.4 using model 203 (ID Business Solutions, LTD, Guildford, UK).
row,SMILES,EC50 [nM]
1,"COCCCn1nc(NS(C)(=O)=O)c2c(Cl)ccc(-n3c([C@H](Cc4cc(F)cc(F)c4)NC(=O)Cn4nc(C(F)F)c5c4C(F)(F)[C@@H]4C[C@H]54)nc4nc(C5(CCN6C[C@H](F)C[C@H](F)C6)CCC(F)(F)CC5)cc(C)c4c3=O)c21 (atropisomer, axis not shown; (P)) [Example 615]",0.027
2,"Cc1cc(C2CCC(F)(F)CC2)nc2nc([C@H](Cc3cc(F)cc(F)c3)NC(=O)Cn3nc(C(F)F)c4c3C[C@@H]3C[C@H]43)n(-c3ccc(Cl)c4c(NS(C)(=O)=O)nn(CCN5CC(C)(C)OC(C)(C)C5)c34)c(=O)c12 (atropisomer, axis not shown; (P)) [Example 611, N-[(1S)-1-[(3P)-3-{4-chloro-3-methanesulfonamido-1-[2-(2,2,6,6-tetramethylmorpholin-4-yl)ethyl]-1H-indazol-7-yl}-7-(4,4-difluorocyclohexyl)-5-methyl-4-oxo-3H,4H-pyrido[2,3-d]pyrimidin-2-yl]-2-(3,5-difluorophenyl)ethyl]-2-[(2S,4S)-9-(difluoromethyl)-7,8-diazatricyclo[4.3.0.0^2,^4]nona-1(6),8-dien-7-yl]acetamide]",0.025
3,"Cc1cc(C2CCC(F)(F)CC2)nc2nc([C@H](Cc3cc(F)cc(F)c3)NC(=O)Cn3nc(C4CC4)c4c3C[C@@H]3C[C@H]43)n(-c3ccc(Cl)c4c(NS(C)(=O)=O)nn(C[C@@H](C)N5CC(C)(C)OC(C)(C)C5)c34)c(=O)c12 (relative stereo) [Example 706, N-[(1S)-1-[(3P)-3-{4-chloro-3-methanesulfonamido-1-[(2R)-2-(2,2,6,6-tetramethylmorpholin-4-yl)propyl]-1H-indazol-7-yl}-7-(4,4-difluorocyclohexyl)-5-methyl-4-oxo-3H,4H-pyrido[2,3-d]pyrimidin-2-yl]-2-(3,5-difluorophenyl)ethyl]-2-[(2R*,4R*)-9-cyclopropyl-7,8-diazatricyclo[4.3.0.0^2,^4]nona-1(6),8-dien-7-yl]acetamide]",0.015
4,"Cc1cc(C2(F)CCC(F)(F)CC2)nc2nc([C@H](Cc3cc(F)cc(F)c3)NC(=O)Cn3nc(C(F)F)c4c3C(F)(F)[C@@H]3C[C@H]43)n(-c3ccc(Cl)c4c(NS(C)(=O)=O)nn([C@H](C)C(=O)N5C[C@H](F)C[C@H](F)C5)c34)c(=O)c12 (atropisomer, axis not shown; (P)) [Example 755, N-[(1S)-1-[(3P)-3-{4-chloro-1-[(2R)-1-[(3R,5S)-3,5-difluoropiperidin-1-yl]-1-oxopropan-2-yl]-3-methanesulfonamido-1H-indazol-7-yl}-5-methyl-4-oxo-7-(1,4,4-trifluorocyclohexyl)-3H,4H-pyrido[2,3-d]pyrimidin-2-yl]-2-(3,5-difluorophenyl)ethyl]-2-[(2S,4R)-9-(difluoromethyl)-5,5-difluoro-7,8-diazatricyclo[4.3.0.0^2,^4]nona-1(6),8-dien-7-yl]acetamide]",0.027
5,"Cc1cc(C2CCC(F)(F)CC2)nc2nc([C@H](Cc3cc(F)cc(F)c3)NC(=O)Cn3nc(C4CC4)c4c3C(F)(F)[C@@H]3C[C@H]43)n(-c3ccc(Cl)c4c(NS(C)(=O)=O)nn(CCN5CC(C)(C)OC(C)(C)C5)c34)c(=O)c12 (atropisomer, axis not shown; (P)) [Example 610, N-[(1S)-1-[(3P)-3-{4-chloro-3-methanesulfonamido-1-[2-(2,2,6,6-tetramethylmorpholin-4-yl)ethyl]-1H-indazol-7-yl}-7-(4,4-difluorocyclohexyl)-5-methyl-4-oxo-3H,4H-pyrido[2,3-d]pyrimidin-2-yl]-2-(3,5-difluorophenyl)ethyl]-2-[(2S,4R)-9-cyclopropyl-5,5-difluoro-7,8-diazatricyclo[4.3.0.0^2,^4]nona-1(6),8-dien-7-yl]acetamide]",0.017
6,"Cc1cc(C2(F)CCC(F)(F)CC2)nc2nc([C@H](Cc3cc(F)cc(F)c3)NC(=O)Cn3nc(C4CC4)c4c3C[C@@H]3C[C@H]43)n(-c3ccc(Cl)c4c(NS(C)(=O)=O)nn([C@H](C)C(=O)N5C[C@H](F)C[C@H](F)C5)c34)c(=O)c12 (relative stereo) [Example 756, N-[(1S)-1-[(3P)-3-{4-chloro-1-[(2R)-1-[(3R,5S)-3,5-difluoropiperidin-1-yl]-1-oxopropan-2-yl]-3-methanesulfonamido-1H-indazol-7-yl}-5-methyl-4-oxo-7-(1,4,4-trifluorocyclohexyl)-3H,4H-pyrido[2,3-d]pyrimidin-2-yl]-2-(3,5-difluorophenyl)ethyl]-2-[(2R*,4R*)-9-cyclopropyl-7,8-diazatricyclo[4.3.0.0^2,^4]nona-1(6),8-dien-7-yl]acetamide]",0.037
7,"Cc1cc(C2CCC(F)(F)CC2)nc2nc([C@H](Cc3cc(F)cc(F)c3)NC(=O)Cn3nc(C(F)F)c4c3C(F)(F)[C@@H]3C[C@H]43)n(-c3ccc(Cl)c4c(NS(C)(=O)=O)nn(C[C@@H](C)N5CC(C)(C)OC(C)(C)C5)c34)c(=O)c12 (atropisomer, axis not shown; (P)) [Example 705, N-[(1S)-1-[(3P)-3-{4-chloro-3-methanesulfonamido-1-[(2R)-2-(2,2,6,6-tetramethylmorpholin-4-yl)propyl]-1H-indazol-7-yl}-7-(4,4-difluorocyclohexyl)-5-methyl-4-oxo-3H,4H-pyrido[2,3-d]pyrimidin-2-yl]-2-(3,5-difluorophenyl)ethyl]-2-[(2S,4R)-9-(difluoromethyl)-5,5-difluoro-7,8-diazatricyclo[4.3.0.0^2,^4]nona-1(6),8-dien-7-yl]acetamide]",0.021
8,"CS(=O)(=O)Nc1nn(CCN2C[C@H](F)C[C@H](F)C2)c2c(-n3c([C@H](Cc4cc(F)cc(F)c4)NC(=O)Cn4nc(C(F)F)c5c4C(F)(F)[C@@H]4C[C@H]54)nc4nc(C5CCC(F)(F)CC5)cc(CN5CC(F)(F)C5)c4c3=O)ccc(Cl)c12 (atropisomer, axis not shown; (P)) [Example 620, N-[(1S)-1-[(3P)-3-(4-chloro-1-{2-[(3R,5S)-3,5-difluoropiperidin-1-yl]ethyl}-3-methanesulfonamido-1H-indazol-7-yl)-5-[(3,3-difluoroazetidin-1-yl)methyl]-7-(4,4-difluorocyclohexyl)-4-oxo-3H,4H-pyrido[2,3-d]pyrimidin-2-yl]-2-(3,5-difluorophenyl)ethyl]-2-[(2S,4R)-9-(difluoromethyl)-5,5-difluoro-7,8-diazatricyclo[4.3.0.0^2,]nona-1(6),8-dien-7-yl]acetamide]",0.007
9,"Cc1cc(C2(F)CCC(F)(F)CC2)nc2nc([C@H](Cc3cc(F)cc(F)c3)NC(=O)Cn3nc(C(F)F)c4c3C(F)(F)[C@@H]3C[C@H]43)n(-c3ccc(Cl)c4c(NS(C)(=O)=O)nn(C[C@@H](C)N5CC(C)(C)OC(C)(C)C5)c34)c(=O)c12 (atropisomer, axis not shown; (P)) [Example 707, N-[(1S)-1-[(3P)-3-{4-chloro-3-methanesulfonamido-1-[(2R)-2-(2,2,6,6-tetramethylmorpholin-4-yl)propyl]-1H-indazol-7-yl}-5-methyl-4-oxo-7-(1,4,4-trifluorocyclohexyl)-3H,4H-pyrido[2,3-d]pyrimidin-2-yl]-2-(3,5-difluorophenyl)ethyl]-2-[(2S,4R)-9-(difluoromethyl)-5,5-difluoro-7,8-diazatricyclo[4.3.0.0^2,^4]nona-1(6),8-dien-7-yl]acetamide]",0.038
10,"Cc1cc(C2CCC(F)(F)CC2)nc2nc([C@H](Cc3cc(F)cc(F)c3)NC(=O)Cn3nc(C4CC4)c4c3C[C@H]3C[C@@H]43)n(-c3ccc(Cl)c4c(NS(C)(=O)=O)nn(CCN5CC(C)(C)OC(C)(C)C5)c34)c(=O)c12 (atropisomer, axis not shown; (P)) [Example 606, N-[(1S)-1-[(3P)-3-{4-chloro-3-methanesulfonamido-1-[2-(2,2,6,6-tetramethylmorpholin-4-yl)ethyl]-1H-indazol-7-yl}-7-(4,4-difluorocyclohexyl)-5-methyl-4-oxo-3H,4H-pyrido[2,3-d]pyrimidin-2-yl]-2-(3,5-difluorophenyl)ethyl]-2-[(2R,4R)-9-cyclopropyl-7,8-diazatricyclo[4.3.0.0^2,^4]nona-1(6),8-dien-7-yl]acetamide]",0.026
11,"Cc1cc(C2CCC(F)(F)CC2)nc2nc([C@H](Cc3cc(F)cc(F)c3)NC(=O)Cn3nc([C@H]4CC4(F)F)c4c3C[C@H]3C[C@@H]43)n(-c3ccc(Cl)c4c(NS(C)(=O)=O)nn(CCN5CC(C)(C)OC(C)(C)C5)c34)c(=O)c12 (atropisomer, axis not shown; (P)) [Example 613, N-[(1S)-1-[(3P)-3-{4-chloro-3-methanesulfonamido-1-[2-(2,2,6,6-tetramethylmorpholin-4-yl)ethyl]-1H-indazol-7-yl}-7-(4,4-difluorocyclohexyl)-5-methyl-4-oxo-3H,4H-pyrido[2,3-d]pyrimidin-2-yl]-2-(3,5-difluorophenyl)ethyl]-2-[(2R,4R)-9-[(1R)-2,2-difluorocyclopropyl]-7,8-diazatricyclo[4.3.0.0^2,^4]nona-1(6),8-dien-7-yl]acetamide]",0.015
